Measurements: ChEMBL document CHEMBL1201862, “PubChem BioAssay data set” (2004)
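Growth conditions: 96-well plates. Treatment: test compound, 48 hours, 5 concentrations. Analysis: linear interpolation between bracketing concentrations; unreached endpoints set to highest concentration. At the GI50, growth is halved.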 Activity calls are given as the source filed them. Cut-off read from the data, not from the text of the source: active = GI50 up to about 1.1 µM and inactive = higher.

What was measured:
Assay in all cases: growth of human tumour cells (NCI), 48 h
[1] = system: HCC 2998
[2] = system: NCI-H226
[3] = system: CCRF-CEM
[4] = system: RPMI-8226
[5] = system: OVCAR-4
[6] = system: SK-OV-3
[7] = system: SK-MEL-5
[8] = system: MDA-MB-435
[9] = system: Hs-578T
[10] = system: K562
[11] = system: UACC-257
[12] = system: HOP-92
[13] = system: 786-0
[14] = system: RXF 393
[15] = system: A498
[16] = system: SF-268
[17] = system: SR
[18] = system: NCI/ADR-RES
[19] = system: SK-MEL-28
[20] = system: HCT-15
[21] = system: COLO 205
[22] = system: HT-29
[23] = system: OVCAR-8
[24] = system: PC-3
[25] = system: SK-MEL-2
[26] = system: MDA-N
[27] = system: EKVX
[28] = system: DU-145
[29] = system: T47D
[30] = system: MCF7
[31] = system: MDA-MB-231
[32] = system: IGROV-1
[33] = system: Malme-3M
[34] = system: SF-539
[35] = system: NCI-H23
[36] = system: HOP-62
[37] = system: MOLT-4
[38] = system: NCI-H522
[39] = system: OVCAR-3
[40] = system: HCT-116
[41] = system: HL-60
[42] = system: M14
[43] = system: KM12
[44] = system: OVCAR-5
[45] = system: SN12C
[46] = system: A549
[47] = system: SNB-19
[48] = system: UO-31
[49] = system: ACHN
[50] = system: SF-295
[51] = system: NCI-H460
[52] = system: UACC-62
[53] = system: SW-620
[54] = system: LOX IMVI
[55] = system: TK-10
[56] = system: CAKI-1
[57] = system: U-251
[58] = system: SNB-75
[59] = system: BT-549

## O=C1C=C(Nc2ccc(Br)cc2)c2ccccc2/C1=N/O
[1]
  GI50: 3.84 µM (inactive)
[2]
  GI50: 2.32 µM (inactive)
[3]
  GI50: 23.6 µM (inactive)
[4]
  GI50: 11.6 µM (inactive)
[5]
  GI50: 6.84 µM (inactive)
[6]
  GI50: 12.9 µM (inactive)
[7]
  GI50: 0.989 µM (active)
[8]
  GI50: 1.83 µM (inactive)
[9]
  GI50: 3.2 µM (inactive)
[10]
  GI50: 8.71 µM (inactive)
[11]
  GI50: 1.58 µM (inactive)
[12]
  GI50: 17.6 µM (inactive)
[13]
  GI50: 9.73 µM (inactive)
[14]
  GI50: 16.4 µM (inactive)
[15]
  GI50: 5.81 µM (inactive)
[16]
  GI50: 5.6 µM (inactive)
[17]
  GI50: 9.38 µM (inactive)
[18]
  GI50: 8.67 µM (inactive)
[19]
  GI50: 2 µM (inactive)
[20]
  GI50: 3.14 µM
[21]
  GI50: 4.78 µM (inactive)
[22]
  GI50: 12.1 µM (inactive)
[23]
  GI50: 12.1 µM (inactive)
[24]
  GI50: 8.47 µM (inactive)
[25]
  GI50: 1.5 µM (inactive)
[26]
  GI50: 1.89 µM (inactive)
[27]
  GI50: 35.5 µM (inactive)
[28]
  GI50: 1.77 µM (inactive)
[29]
  GI50: 13.6 µM (inactive)
[30]
  GI50: 4.16 µM (inactive)
[31]
  GI50: 9.75 µM (inactive)
[32]
  GI50: 32.6 µM (inactive)
[33]
  GI50: 10.2 µM (inactive)
[34]
  GI50: 9.48 µM (inactive)
[35]
  GI50: 1.28 µM (inactive)
[36]
  GI50: 2.78 µM (inactive)
[37]
  GI50: 11.7 µM (inactive)
[38]
  GI50: 28.1 µM (inactive)
[39]
  GI50: 7.35 µM (inactive)
[40]
  GI50: 11.4 µM (inactive)
[41]
  GI50: 13.2 µM (inactive)
[42]
  GI50: 1.63 µM (inactive)
[43]
  GI50: 2.5 µM (inactive)
[44]
  GI50: 5.18 µM (inactive)
[45]
  GI50: 10.6 µM (inactive)
[46]
  GI50: 1.98 µM (inactive)
[47]
  GI50: 2.5 µM (inactive)
[48]
  GI50: 6.64 µM (inactive)
[49]
  GI50: 7.31 µM (inactive)
[50]
  GI50: 1.54 µM (inactive)
[51]
  GI50: 2.3 µM (inactive)
[52]
  GI50: 1.73 µM (inactive)
[53]
  GI50: 4.32 µM (inactive)
[54]
  GI50: 2.18 µM (inactive)
[55]
  GI50: 9.1 µM (inactive)
[56]
  GI50: 6.52 µM (inactive)
[57]
  GI50: 4.93 µM (inactive)
[58]
  GI50: 2.75 µM (inactive)

## CNC(=S)/N=c1/sc(NC)nc2sc3c(c12)CCCC3
[1]
  GI50: > 100 µM (inactive)
[2]
  GI50: > 100 µM (inactive)
[3]
  GI50: > 100 µM (inactive)
[4]
  GI50: > 100 µM (inactive)
[5]
  GI50: > 100 µM (inactive)
[6]
  GI50: 64.6 µM (inactive)
[7]
  GI50: > 100 µM (inactive)
[8]
  GI50: > 100 µM (inactive)
[9]
  GI50: 29 µM (inactive)
[10]
  GI50: > 100 µM (inactive)
[11]
  GI50: > 100 µM (inactive)
[12]
  GI50: 37.3 µM (inactive)
[13]
  GI50: 38.1 µM (inactive)
[14]
  GI50: 22.5 µM (inactive)
[15]
  GI50: > 100 µM (inactive)
[16]
  GI50: 34.6 µM (inactive)
[17]
  GI50: > 100 µM (inactive)
[19]
  GI50: > 100 µM (inactive)
[20]
  GI50: > 100 µM
[59]
  GI50: 47.1 µM (inactive)
[21]
  GI50: > 100 µM (inactive)
[22]
  GI50: > 100 µM (inactive)
[24]
  GI50: > 100 µM (inactive)
[25]
  GI50: > 100 µM (inactive)
[26]
  GI50: > 100 µM (inactive)
[27]
  GI50: 76.6 µM (inactive)
[28]
  GI50: > 100 µM (inactive)
[30]
  GI50: > 100 µM (inactive)
[31]
  GI50: 51.9 µM (inactive)
[32]
  GI50: > 100 µM (inactive)
[33]
  GI50: > 100 µM (inactive)
[35]
  GI50: > 100 µM (inactive)
[36]
  GI50: 55 µM (inactive)
[37]
  GI50: > 100 µM (inactive)
[38]
  GI50: 36.4 µM (inactive)
[39]
  GI50: > 100 µM (inactive)
[40]
  GI50: > 100 µM (inactive)
[41]
  GI50: > 100 µM (inactive)
[43]
  GI50: > 100 µM (inactive)
[44]
  GI50: > 100 µM (inactive)
[45]
  GI50: > 100 µM (inactive)
[47]
  GI50: 35.9 µM (inactive)
[48]
  GI50: > 100 µM (inactive)
[49]
  GI50: > 100 µM (inactive)
[50]
  GI50: 30.8 µM (inactive)
[51]
  GI50: > 100 µM (inactive)
[52]
  GI50: > 100 µM (inactive)
[53]
  GI50: > 100 µM (inactive)
[54]
  GI50: > 100 µM (inactive)
[55]
  GI50: > 100 µM (inactive)
[56]
  GI50: > 100 µM (inactive)
[57]
  GI50: 35.4 µM (inactive)
